Data taken from patent US12479847B2 (DANA-FARBER CANCER INSTITUTE, INC., priority 2019, dated 2025).

target: human LRRK2 kinase (Homo sapiens, UniProt Q5S007); details: LRRK2, ADP-Glo, ATP 10 μM, 60 minutes at 25° C.
Sequence (Q5S007 whole entry): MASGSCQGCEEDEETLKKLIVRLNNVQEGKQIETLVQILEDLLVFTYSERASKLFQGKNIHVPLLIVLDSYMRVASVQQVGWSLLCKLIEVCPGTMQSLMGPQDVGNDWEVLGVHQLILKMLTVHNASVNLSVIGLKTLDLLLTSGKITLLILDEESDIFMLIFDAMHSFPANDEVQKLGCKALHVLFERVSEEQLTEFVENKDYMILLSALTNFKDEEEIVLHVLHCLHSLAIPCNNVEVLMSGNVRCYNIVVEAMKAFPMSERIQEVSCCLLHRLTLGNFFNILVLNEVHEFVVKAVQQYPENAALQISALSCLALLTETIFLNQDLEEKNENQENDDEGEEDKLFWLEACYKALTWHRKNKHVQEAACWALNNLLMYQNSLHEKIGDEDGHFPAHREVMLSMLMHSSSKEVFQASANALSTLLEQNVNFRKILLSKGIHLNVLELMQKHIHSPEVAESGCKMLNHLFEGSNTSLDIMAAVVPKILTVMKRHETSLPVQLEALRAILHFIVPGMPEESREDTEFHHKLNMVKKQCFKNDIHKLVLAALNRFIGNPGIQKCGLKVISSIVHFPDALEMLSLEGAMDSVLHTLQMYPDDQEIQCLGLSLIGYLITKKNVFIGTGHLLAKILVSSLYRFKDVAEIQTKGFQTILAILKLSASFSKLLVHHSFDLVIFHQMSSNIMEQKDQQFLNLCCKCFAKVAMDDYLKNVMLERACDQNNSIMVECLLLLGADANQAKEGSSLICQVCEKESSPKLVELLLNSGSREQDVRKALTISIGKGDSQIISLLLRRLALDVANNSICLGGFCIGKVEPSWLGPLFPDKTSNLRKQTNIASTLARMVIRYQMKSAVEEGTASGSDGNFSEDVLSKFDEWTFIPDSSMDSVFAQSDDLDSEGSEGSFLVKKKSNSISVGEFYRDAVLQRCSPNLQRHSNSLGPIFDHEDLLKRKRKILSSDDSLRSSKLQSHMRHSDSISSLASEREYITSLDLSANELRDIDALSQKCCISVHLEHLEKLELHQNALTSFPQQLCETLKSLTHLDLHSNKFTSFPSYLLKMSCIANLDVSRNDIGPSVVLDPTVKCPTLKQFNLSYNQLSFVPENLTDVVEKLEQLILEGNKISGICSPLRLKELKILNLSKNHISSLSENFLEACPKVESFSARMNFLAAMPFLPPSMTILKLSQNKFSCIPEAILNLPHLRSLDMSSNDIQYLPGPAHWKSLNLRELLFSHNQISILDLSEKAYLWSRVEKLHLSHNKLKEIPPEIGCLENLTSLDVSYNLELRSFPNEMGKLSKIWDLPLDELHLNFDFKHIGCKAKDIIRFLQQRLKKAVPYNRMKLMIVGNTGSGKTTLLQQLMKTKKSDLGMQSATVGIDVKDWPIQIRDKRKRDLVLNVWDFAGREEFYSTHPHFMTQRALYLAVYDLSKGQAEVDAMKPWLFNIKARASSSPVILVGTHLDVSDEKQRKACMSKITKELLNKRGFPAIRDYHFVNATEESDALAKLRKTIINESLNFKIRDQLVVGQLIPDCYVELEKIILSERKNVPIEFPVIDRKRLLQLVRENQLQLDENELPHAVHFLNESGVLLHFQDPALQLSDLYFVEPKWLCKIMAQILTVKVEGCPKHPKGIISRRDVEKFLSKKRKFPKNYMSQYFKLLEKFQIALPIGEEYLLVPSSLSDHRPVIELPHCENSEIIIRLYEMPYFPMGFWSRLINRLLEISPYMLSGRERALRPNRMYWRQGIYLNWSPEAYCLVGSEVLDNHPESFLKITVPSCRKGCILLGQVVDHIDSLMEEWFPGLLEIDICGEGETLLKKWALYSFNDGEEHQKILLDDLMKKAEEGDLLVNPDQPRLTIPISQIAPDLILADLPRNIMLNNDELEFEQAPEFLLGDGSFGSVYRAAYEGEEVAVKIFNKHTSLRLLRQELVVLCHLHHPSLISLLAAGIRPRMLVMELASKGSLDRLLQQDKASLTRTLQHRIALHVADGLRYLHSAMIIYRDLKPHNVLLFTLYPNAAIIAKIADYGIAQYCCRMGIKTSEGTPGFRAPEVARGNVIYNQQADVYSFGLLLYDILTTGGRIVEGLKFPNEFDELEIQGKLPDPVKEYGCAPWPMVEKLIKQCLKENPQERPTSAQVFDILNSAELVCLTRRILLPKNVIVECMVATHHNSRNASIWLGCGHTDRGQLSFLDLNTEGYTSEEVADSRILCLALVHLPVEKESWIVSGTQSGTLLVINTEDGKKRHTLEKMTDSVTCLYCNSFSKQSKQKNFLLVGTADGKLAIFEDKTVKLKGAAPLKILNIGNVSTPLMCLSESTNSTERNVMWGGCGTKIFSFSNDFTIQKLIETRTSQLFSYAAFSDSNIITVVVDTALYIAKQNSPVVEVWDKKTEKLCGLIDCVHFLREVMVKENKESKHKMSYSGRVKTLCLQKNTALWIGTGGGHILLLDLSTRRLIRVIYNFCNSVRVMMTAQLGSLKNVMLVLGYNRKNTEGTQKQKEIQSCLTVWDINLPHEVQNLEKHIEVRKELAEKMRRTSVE

| IC50 [nM] | Compound |
| --- | --- |
| 10 to 100 | COc1cc(S(C)(=O)=O)ccc1Nc1nc(NCC2CC2)c2c(Cl)c[nH]c2n1 [Compound 64, 5-chloro-N4-(cyclopropylmethyl)-N2-(2-methoxy-4-(methylsulfonyl)phenyl)-7H-pyrrolo[2,3-d]pyrimidine-2,4-diamine] |
| 100 to 1000 | COc1cc(S(=O)(=O)N2CCOCC2)ccc1Nc1nc(NCC2CCCC2)c2c(Cl)c[nH]c2n1 [Compound 45, 5-chloro-N4-(cyclopentylmethyl)-N2-(2-methoxy-4-(morpholinosulfonyl)phenyl)-7H-pyrrolo[2,3-d]pyrimidine-2,4-diamine] |
| < 10 | COc1cc(P2(=O)CCN(C(C)=O)CC2)ccc1Nc1nc(NC2CC2)c2c(Cl)c[nH]c2n1 [Compound 91, 1-(4-(4-((5-chloro-4-(cyclopropylamino)-7H-pyrrolo[2,3-d]pyrimidin-2-yl)amino)-3-methoxyphenyl)-4-oxido-1,4-azaphosphinan-1-yl)ethan-1-one] |
| 10 to 100 | COc1cc(S(=O)(=O)N2CCOCC2)ccc1Nc1nc(N[C@H]2CCOC2)c2c(Cl)c[nH]c2n1 [Compound 60, (S)-5-chloro-N2-(2-methoxy-4-(morpholinosulfonyl)phenyl)-N4-(tetrahydrofuran-3-yl)-7H-pyrrolo[2,3-d]pyrimidine-2,4-diamine] |
| 10 to 100 | CCCNc1nc(Nc2ccc(C(=O)N3CCC(N4CCOCC4)CC3)c3c2OCC3)nc2[nH]cc(Cl)c12 [Compound 102, (7-((5-chloro-4-(propylamino)-7H-pyrrolo[2,3-d]pyrimidin-2-yl)amino)-2,3-dihydrobenzofuran-4-yl)(4-morpholinopiperidin-1-yl)methanone] |
| < 10 | CNc1nc(Nc2ccc(C(=O)N3CCC(N4CCOCC4)CC3)c3c2OCCO3)nc2[nH]cc(Cl)c12 [Compound 10, (8-((5-chloro-4-(methylamino)-7H-pyrrolo[2,3-d]pyrimidin-2-yl)amino)-2,3-dihydrobenzo[b][1,4]dioxin-5-yl)(4-morpholinopiperidin-1-yl)methanone] |
| 10 to 100 | CCCNc1nc(Nc2ccc(S(C)(=O)=O)cc2OC)nc2[nH]cc(Cl)c12 [Compound 8, 5-chloro-N2-(2-methoxy-4-(methylsulfonyl)phenyl)-N4-propyl-7H-pyrrolo[2,3-d]pyrimidine-2,4-diamine] |
| 100 to 1000 | CC[C@@H](C)Nc1nc(Nc2ccc(S(=O)(=O)N3CCOCC3)cc2OC)nc2[nH]cc(Cl)c12 [Compound 47, (R)—N4-(sec-butyl)-5-chloro-N2-(2-methoxy-4-(morpholinosulfonyl)phenyl)-7H-pyrrolo[2,3-d]pyrimidine-2,4-diamine] |
| 100 to 1000 | O=C(c1ccc(Nc2nc(NC3CCCCC3)c3c(Cl)c[nH]c3n2)c2c1CCO2)N1CCOCC1 [Compound 83, (7-((5-chloro-4-(cyclohexylamino)-7H-pyrrolo[2,3-d]pyrimidin-2-yl)amino)-2,3-dihydrobenzofuran-4-yl)(morpholino)methanone] |
| 10 to 100 | CC[C@@H](C)Nc1nc(Nc2ccc(S(C)(=O)=O)cc2OC)nc2[nH]cc(Cl)c12 [Compound 49, (R)—N4-(sec-butyl)-5-chloro-N2-(2-methoxy-4-(methylsulfonyl)phenyl)-7H-pyrrolo[2,3-d]pyrimidine-2,4-diamine] |
| 10 to 100 | CCCCNc1nc(Nc2ccc(S(=O)(=O)N3CCOCC3)cc2OC)nc2[nH]cc(Cl)c12 [Compound 71, N4-butyl-5-chloro-N2-(2-methoxy-4-(morpholinosulfonyl)phenyl)-7H-pyrrolo[2,3-d]pyrimidine-2,4-diamine] |
| 10 to 100 | COc1cc(S(=O)(=O)N2CCOCC2)ccc1Nc1nc(NCCS(C)(=O)=O)c2c(Cl)c[nH]c2n1 [Compound 68, 5-chloro-N2-(2-methoxy-4-(morpholinosulfonyl)phenyl)-N4-(2-(methylsulfonyl)ethyl)-7H-pyrrolo[2,3-d]pyrimidine-2,4-diamine] |
| < 10 | COc1cc(S(=O)(=O)N2CCC(N3CCOCC3)CC2)ccc1Nc1nc(N[C@H]2CCOC2)c2c(Cl)c[nH]c2n1 [Compound 61, (S)-5-chloro-N2-(2-methoxy-4-((4-morpholinopiperidin-1-yl)sulfonyl)phenyl)-N4-(tetrahydrofuran-3-yl)-7H-pyrrolo[2,3-d]pyrimidine-2,4-diamine] |
| 10 to 100 | CCCNc1nc(Nc2ccc(C(=O)N3CCOCC3)c3c2OCCO3)nc2[nH]cc(Cl)c12 [Compound 20, (8-((5-chloro-4-(propylamino)-7H-pyrrolo[2,3-d]pyrimidin-2-yl)amino)-2,3-dihydrobenzo[b][1,4]dioxin-5-yl)(morpholino)methanone] |
| 100 to 1000 | COc1cc(S(=O)(=O)N2CCC(N3CCOCC3)CC2)ccc1Nc1nc(NCC2CCCC2)c2c(Cl)c[nH]c2n1 [Compound 67, 5-chloro-N4-(cyclopentylmethyl)-N2-(2-methoxy-4-((4-morpholinopiperidin-1-yl)sulfonyl)phenyl)-7H-pyrrolo[2,3-d]pyrimidine-2,4-diamine] |
| 10 to 100 | CNc1nc(Nc2ccc(P3(=O)CCN(C4CC4)CC3)cc2OC)nc2[nH]cc(Cl)c12 [Compound 85, 4-(4-((5-chloro-4-(methylamino)-7H-pyrrolo[2,3-d]pyrimidin-2-yl)amino)-3-methoxyphenyl)-1-cyclopropyl-1,4-azaphosphinane 4-oxide] |
| 100 to 1000 | COc1cc(S(C)(=O)=O)ccc1Nc1nc(NC2CCCCC2)c2c(Cl)c[nH]c2n1 [Compound 59, 5-chloro-N4-cyclohexyl-N2-(2-methoxy-4-(methylsulfonyl)phenyl)-7H-pyrrolo[2,3-d]pyrimidine-2,4-diamine] |
| 10 to 100 | CCCCNc1nc(Nc2ccc(C(=O)N3CCOCC3)c3c2OCCO3)nc2[nH]cc(Cl)c12 [Compound 74, (8-((4-(butylamino)-5-chloro-7H-pyrrolo[2,3-d]pyrimidin-2-yl)amino)-2,3-dihydrobenzo[b][1,4]dioxin-5-yl)(morpholino)methanone] |
| 100 to 1000 | COc1cc(S(=O)(=O)N2CCOCC2)ccc1Nc1nc(NCC(C)C)c2c(Cl)c[nH]c2n1 [Compound 31, 5-chloro-N4-isobutyl-N2-(2-methoxy-4-(morpholinosulfonyl)phenyl)-7H-pyrrolo[2,3-d]pyrimidine-2,4-diamine] |
| < 10 | O=C(c1ccc(Nc2nc(NC3CC3)c3c(Cl)c[nH]c3n2)c2c1OCCO2)N1CCOCC1 [Compound 27, (8-((5-chloro-4-(cyclopropylamino)-7H-pyrrolo[2,3-d]pyrimidin-2-yl)amino)-2,3-dihydrobenzo[b][1,4]dioxin-5-yl)(morpholino)methanone] |
| < 10 | CCNc1nc(Nc2ccc(C(=O)N3CCC(N4CCOCC4)CC3)c3c2OCCO3)nc2[nH]cc(Cl)c12 [Compound 1, (8-((5-chloro-4-(ethylamino)-7H-pyrrolo[2,3-d]pyrimidin-2-yl)amino)-2,3-dihydrobenzo[b][1,4]dioxin-5-yl)(4-morpholinopiperidin-1-yl)methanone] |
| < 10 | COCCNc1nc(Nc2ccc(C(=O)N3CCOCC3)c3c2OCCO3)nc2[nH]cc(Cl)c12 [Compound 9, (8-((5-chloro-4-((2-methoxyethyl)amino)-7H-pyrrolo[2,3-d]pyrimidin-2-yl)amino)-2,3-dihydrobenzo[b][1,4]dioxin-5-yl)(morpholino)methanone] |
